Measurements published in patent US20250382293A1, “COMPOUNDS AND METHODS FOR YAP/TEAD MODULATION AND INDICATIONS THEREFOR” (OPNA BIO SA, priority 2023, published 2025).

test system: TEAD-dependent transcription; assay: Inhibitor activity against TEAD-dependent transcription in a cell-based reporter assay (MSTO-211H+12XGTIIC luciferase); details: Homo sapiens; MSTO-211H+12XGTIIC cells, 24 hours compound incubation, luminescence normalized to cell viability signal; read-out: MSTO-211H GMean IC50 (uM) Cell Assay Reporter Cell Variant: TEAD
From the text: Determine Inhibitor Activity Against TEAD-Dependent Transcription in a Cell-Based Reporter Assay
The human mesothelioma cell line MSTO-211H was stably transfected with a pGL4.21 plasmid containing a synthetic promoter with 12 copies of the GTIIC TEAD response element that drives the expression of a luciferase reporter gene 1 using Lipofectamine transfection reagent (Thermo Fisher). Transfected cells were selected using puromycin and single cell clones expressing this construct (referred to as MSTO-211H+12XGTIIC) were generated by limiting dilution. MSTO-211H cells was characterized by genetic alterations in key components of the Hippo pathway^2, resulting in up-regulation of YAP/TEAD-mediated transcription. […] To evaluate TEAD inhibitors, the MSTO-211H+12XGTIIC cell line was seeded in a 96-well plate in 50 μL of culture media at 1×10^4 cells per well and incubated at 37° C. overnight. Serial dilutions of compounds (in total volume of 50 μL of culture media) were added to the cells and incubated at 37° C. for 24 hours. Each plate included cells treated with DMSO as high controls and cells treated with 20 μM of the reference compound K-975 (a known TEAD inhibitor) 3 as low controls. Cell viability was assayed by the addition of 25 μL of CellTiter-Fluor reagent (Promega) followed by a 30-minute incubation at 37° C. and quantification of the fluorescence signal (Ex400/Em505). Subsequently, luciferase expression was assayed by the addition of 25 μL of ONE-Glo reagent (Promega) followed by a 10-minute incubation at room temperature and quantification of the luminescence signal. The luminescence signal was normalized to the fluorescence signal to correct for any loss in cell viability over the 24-hour compound incubation period. The percentage of inhibition of normalized luminescence signal, indicative of compound-mediated inhibition of TEAD-dependent transcription, at individual compound concentrations relative to high and low controls was calculated. The data were analyzed by using nonlinear regression to generate IC50 values for individual compounds.

SMILES | IC50
O=C(CCS(=O)(=O)C(F)(F)F)N1CCc2c(cccc2Oc2ccc(C(F)(F)F)nc2)C1 [O-0002, 1-(5-((6-(trifluoromethyl)pyridin-3-yl)oxy)-3,4-dihydroisoquinolin-2(1H)-yl)-3-((trifluoromethyl)sulfonyl)propan-1-one] | 0.001 to 10 µM
C=CS(=O)(=O)N1CCC(N2CCc3c(cccc3Oc3ccc(C(F)(F)F)cc3)C2)CC1 [O-0122, 5-(4-(trifluoromethyl)phenoxy)-2-(1-(vinylsulfonyl)piperidin-4-yl)-1,2,3,4-tetrahydroisoquinoline] | 10 to 100 µM
O=S(=O)(N1CC(N2CCc3c(cccc3Oc3ccc(C(F)(F)F)cc3)C2)C1)C(F)(F)F [O-0116, 5-(4-(trifluoromethyl)phenoxy)-2-(1-((trifluoromethyl)sulfonyl)azetidin-3-yl)-1,2,3,4-tetrahydroisoquinoline] | 0.001 to 10 µM
CS(=O)(=O)Nc1nc(C(=O)N2CCc3c(cccc3Oc3ccc(C(F)(F)F)cc3)C2)cs1 [O-0110, N-(4-(5-(4-(trifluoromethyl)phenoxy)-1,2,3,4-tetrahydroisoquinoline-2-carbonyl)thiazol-2-yl)methanesulfonamide] | 0.001 to 10 µM
O=S(=O)(N1CCC(N2CCc3c(cccc3Oc3ccc(C(F)(F)F)cc3)C2)C1)C(F)(F)F (stereo not shown) [O-0112, 5-(4-(trifluoromethyl)phenoxy)-2-(1-((trifluoromethyl)sulfonyl)pyrrolidin-3-yl)-1,2,3,4-tetrahydroisoquinoline.] | 0.001 to 10 µM
O=C(c1c[nH]c(C(F)(F)F)n1)N1CCc2cc(Oc3ccc(C(F)(F)F)cc3)ccc2C1 [O-0074, (2-(trifluoromethyl)-1H-imidazol-4-yl)(6-(4-(trifluoromethyl)phenoxy)-3,4-dihydroisoquinolin-2(1H)-yl)methanone] | 0.001 to 10 µM
CS(=O)(=O)N1CCCC(N2CCc3c(cccc3Oc3ccc(C(F)(F)F)cc3)C2)C1 (stereo not shown) [O-0111, 2-(1-(methylsulfonyl)piperidin-3-yl)-5-(4-(trifluoromethyl)phenoxy)-1,2,3,4-tetrahydroisoquinoline] | 0.001 to 10 µM
O=S(=O)(N1CCC(N2CCc3c(cccc3Oc3ccc(C(F)(F)F)cc3)C2)CC1)C(F)(F)F [O-0121, 5-(4-(trifluoromethyl)phenoxy)-2-(1-((trifluoromethyl)sulfonyl)piperidin-4-yl)-1,2,3,4-tetrahydroisoquinoline] | 0.001 to 10 µM
O=C(CCS(=O)(=O)C(F)(F)F)N1CCc2c(ncnc2Oc2ccc(C(F)(F)F)cc2)C1 [O-0003, 1-(4-(4-(trifluoromethyl)phenoxy)-5,8-dihydropyrido[3,4-d]pyrimidin-7(6H)-yl)-3-((trifluoromethyl)sulfonyl)propan-1-one] | 0.001 to 10 µM
O=C(CCl)N1CCc2cc(Oc3ccc(C(F)(F)F)cc3)ccc2C1 [O-0070, 2-chloro-1-(6-(4-(trifluoromethyl)phenoxy)-3,4-dihydroisoquinolin-2(1H)-yl)ethan-1-one] | 0.001 to 10 µM
CS(=O)(=O)Nc1nc(C(=O)N2CCc3c(cccc3Oc3ccc(C(F)(F)F)c(F)c3)C2)co1 [O-0106, N-(4-(5-(3-fluoro-4-(trifluoromethyl)phenoxy)-1,2,3,4-tetrahydroisoquinoline-2-carbonyl)oxazol-2-yl)methanesulfonamide] | 10 to 100 µM
C=CC(=O)N1CCC(N2CCc3c(cccc3Oc3ccc(C(F)(F)F)cc3)C2)CC1 [O-0123, 1-(4-(5-(4-(trifluoromethyl)phenoxy)-3,4-dihydroisoquinolin-2(1H)-yl)piperidin-1-yl)prop-2-en-1-one] | 0.001 to 10 µM
CS(=O)(=O)Nc1nc(C(=O)N2CCc3c(cccc3Oc3ccc(C(F)(F)F)c(F)c3)C2)cs1 [O-0109, N-(4-(5-(3-fluoro-4-(trifluoromethyl)phenoxy)-1,2,3,4-tetrahydroisoquinoline-2-carbonyl)thiazol-2-yl)methanesulfonamide] | 10 to 100 µM
C=CS(=O)(=O)N1CCC(N2CCc3c(cccc3Oc3ccc(C(F)(F)F)cc3)C2)C1 (stereo not shown) [O-0113, 5-(4-(trifluoromethyl)phenoxy)-2-(1-(vinylsulfonyl)pyrrolidin-3-yl)-1,2,3,4-tetrahydroisoquinoline] | 0.001 to 10 µM
CCCNS(=O)(=O)c1nc(C(=O)N2CCc3c(cccc3Oc3ccc(C(F)(F)F)cc3)C2)cs1 [O-0105, N-propyl-4-(5-(4-(trifluoromethyl)phenoxy)-1,2,3,4-tetrahydroisoquinoline-2-carbonyl)thiazole-2-sulfonamide] | 0.001 to 10 µM
C=CS(=O)(=O)N1CCc2cc(Oc3ccc(C(F)(F)F)cc3)ccc2C1 [O-0064, 6-(4-(trifluoromethyl)phenoxy)-2-(vinylsulfonyl)-1,2,3,4-tetrahydroisoquinoline] | 0.001 to 10 µM
C=CC(=O)N1CCc2cc(Oc3ccc(C(F)(F)F)cc3)ccc2C1 [O-0058, 1-(6-(4-(trifluoromethyl)phenoxy)-3,4-dihydroisoquinolin-2(1H)-yl)prop-2-en-1-one] | 0.001 to 10 µM
CCNS(=O)(=O)c1nc(C(=O)N2CCc3c(cccc3Oc3ccc(C(F)(F)F)cc3)C2)cs1 [O-0108, N-ethyl-4-(5-(4-(trifluoromethyl)phenoxy)-1,2,3,4-tetrahydroisoquinoline-2-carbonyl)thiazole-2-sulfonamide] | 0.001 to 10 µM
C=CC(=O)N1CCC(N2CCc3c(cccc3Oc3ccc(C(F)(F)F)cc3)C2)C1 (stereo not shown) [O-0114, 1-(3-(5-(4-(trifluoromethyl)phenoxy)-3,4-dihydroisoquinolin-2(1H)-yl)pyrrolidin-1-yl)prop-2-en-1-one] | 0.001 to 10 µM
C=CC(=O)N1CC(N2CCc3c(cccc3Oc3ccc(C(F)(F)F)cc3)C2)C1 [O-0119, 1-(3-(5-(4-(trifluoromethyl)phenoxy)-3,4-dihydroisoquinolin-2(1H)-yl)azetidin-1-yl)prop-2-en-1-one] | 0.001 to 10 µM
CNS(=O)(=O)c1nc(C(=O)N2CCc3c(cccc3Oc3ccc(C(F)(F)F)cc3)C2)cs1 [O-0107, N-methyl-4-(5-(4-(trifluoromethyl)phenoxy)-1,2,3,4-tetrahydroisoquinoline-2-carbonyl)thiazole-2-sulfonamide] | 0.001 to 10 µM
C=CS(=O)(=O)N1CC(N2CCc3c(cccc3Oc3ccc(C(F)(F)F)cc3)C2)C1 [O-0118, 5-(4-(trifluoromethyl)phenoxy)-2-(1-(vinylsulfonyl)azetidin-3-yl)-1,2,3,4-tetrahydroisoquinoline.] | 10 to 100 µM
O=S(=O)(c1ccccc1)N1CCc2cc(Oc3ccc(C(F)(F)F)cc3)ccc2C1 [O-0104, 2-(phenylsulfonyl)-6-(4-(trifluoromethyl)phenoxy)-1,2,3,4-tetrahydroisoquinoline] | 10 to 100 µM
CS(=O)(=O)N1CC(N2CCc3c(cccc3Oc3ccc(C(F)(F)F)cc3)C2)C1 [O-0115, 2-(1-(methylsulfonyl)azetidin-3-yl)-5-(4-(trifluoromethyl)phenoxy)-1,2,3,4-tetrahydroiso-quinoline] | 0.001 to 10 µM
CS(=O)(=O)N1CCC(N2CCc3c(cccc3Oc3ccc(C(F)(F)F)cc3)C2)CC1 [O-0120, 2-(1-(methylsulfonyl)piperidin-4-yl)-5-(4-(trifluoromethyl)phenoxy)-1,2,3,4-tetrahydroisoquinoline] | 0.001 to 10 µM
